Experimental data published in ChEMBL document CHEMBL1201862, “PubChem BioAssay data set” (2004).
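Compound exposure: 48 hours, 5 concentrations, 96-well plates. Here, GI50 denotes the concentration required for 50% inhibition of growth.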 Activity calls are given as the source filed them. Rule as the data show it: active = GI50 up to about 1.1 µM and inactive = higher.

Tests used:
Assay in all cases: inhibition of tumour cell growth, NCI panel, 48 h
A549 = tested on: A549
CCRF-CEM = tested on: CCRF-CEM
HCC 2998 = tested on: HCC 2998
HOP-62 = tested on: HOP-62
M14 = tested on: M14
MCF7 = tested on: MCF7
Malme-3M = tested on: Malme-3M
NCI-H226 = tested on: NCI-H226
NCI-H522 = tested on: NCI-H522
NCI/ADR-RES = tested on: NCI/ADR-RES
RPMI-8226 = tested on: RPMI-8226
SF-295 = tested on: SF-295
SK-MEL-28 = tested on: SK-MEL-28
SK-OV-3 = tested on: SK-OV-3
SNB-19 = tested on: SNB-19
SNB-75 = tested on: SNB-75
SW-620 = tested on: SW-620
U-251 = tested on: U-251
UACC-62 = tested on: UACC-62
MOLT-4 = tested on: MOLT-4

Row | SMILES | GI50 (A549) | GI50 (CCRF-CEM) | GI50 (HCC 2998) | GI50 (HOP-62) | GI50 (M14) | GI50 (MCF7) | GI50 (Malme-3M) | GI50 (NCI-H226) | GI50 (NCI-H522) | GI50 (NCI/ADR-RES) | GI50 (RPMI-8226) | GI50 (SF-295) | GI50 (SK-MEL-28) | GI50 (SK-OV-3) | GI50 (SNB-19) | GI50 (SNB-75) | GI50 (SW-620) | GI50 (U-251) | GI50 (UACC-62) | GI50 (MOLT-4)
1 | Cn1c(=O)c2[nH]c(CCC(=O)O)nc2n(C)c1=O | > 100 µM (inactive) | > 100 µM (inactive) | > 100 µM (inactive) | > 100 µM (inactive) | > 100 µM (inactive) | > 100 µM (inactive) | > 100 µM (inactive) | > 100 µM (inactive) | > 100 µM (inactive) | > 100 µM (inactive) | > 100 µM (inactive) | > 100 µM (inactive) | > 100 µM (inactive) | > 100 µM (inactive) | > 100 µM (inactive) | > 100 µM (inactive) | > 100 µM (inactive) | > 100 µM (inactive) | > 100 µM (inactive) | –
2 | c1cc(CNCCN2CCNCC2)ccn1 | > 100 µM (inactive) | – | – | > 100 µM (inactive) | > 100 µM (inactive) | > 100 µM (inactive) | > 100 µM (inactive) | > 100 µM (inactive) | > 100 µM (inactive) | > 100 µM (inactive) | > 100 µM (inactive) | > 100 µM (inactive) | > 100 µM (inactive) | > 100 µM (inactive) | > 100 µM (inactive) | > 100 µM (inactive) | > 100 µM (inactive) | > 100 µM (inactive) | > 100 µM (inactive) | > 100 µM (inactive)
3 | c1cncc(-c2cc(-c3cc(-c4cccnc4)[nH]n3)n[nH]2)c1 | > 100 µM (inactive) | – | > 100 µM (inactive) | > 100 µM (inactive) | > 100 µM (inactive) | > 100 µM (inactive) | > 100 µM (inactive) | > 100 µM (inactive) | > 100 µM (inactive) | > 100 µM (inactive) | > 100 µM (inactive) | > 100 µM (inactive) | > 100 µM (inactive) | > 100 µM (inactive) | > 100 µM (inactive) | > 100 µM (inactive) | > 100 µM (inactive) | > 100 µM (inactive) | > 100 µM (inactive) | > 100 µM (inactive)
4 | Cc1cn2c(/C=N/NC(=N)N)c(-c3cccc([N+](=O)[O-])c3)nc2s1 | 1.95 µM (inactive) | 0.532 µM (active) | 0.839 µM (active) | 1.38 µM (inactive) | 1.85 µM (inactive) | 0.625 µM (active) | 1.96 µM (inactive) | 1.91 µM (inactive) | 2.08 µM (inactive) | 28.4 µM (inactive) | 3.2 µM (inactive) | 1.81 µM (inactive) | 1.29 µM (inactive) | – | – | – | 0.661 µM (active) | 1.6 µM (inactive) | 1.69 µM (inactive) | 1.77 µM (inactive)
5 | CO[C@@]12C[C@H](CNC(=O)c3ccc[nH]3)O[C@@H]1NC(=O)N2 | > 100 µM (inactive) | – | > 100 µM (inactive) | > 100 µM (inactive) | > 100 µM (inactive) | > 100 µM (inactive) | > 100 µM (inactive) | > 100 µM (inactive) | > 100 µM (inactive) | > 100 µM (inactive) | > 100 µM (inactive) | > 100 µM (inactive) | > 100 µM (inactive) | > 100 µM (inactive) | > 100 µM (inactive) | > 100 µM (inactive) | > 100 µM (inactive) | > 100 µM (inactive) | > 100 µM (inactive) | > 100 µM (inactive)
6 | Clc1ccc(/N=C/C=C/Nc2ccc(Cl)cn2)nc1 | 14.5 µM (inactive) | 3.22 µM (inactive) | – | 16.9 µM (inactive) | 16.4 µM (inactive) | 16.4 µM (inactive) | 17.3 µM (inactive) | 16.1 µM (inactive) | 14 µM (inactive) | 15.2 µM (inactive) | 10.4 µM (inactive) | 16.3 µM (inactive) | 18.6 µM (inactive) | 21.8 µM (inactive) | 16 µM (inactive) | 13 µM (inactive) | 4.9 µM (inactive) | 8.26 µM (inactive) | 12.9 µM (inactive) | 4.74 µM (inactive)
7 | Cc1cc(S(=O)(=O)Nc2nc(N)nc(N3N=CCC3C)n2)c(S)cc1Cl (stereo not given) | > 10 µM (inactive) | > 10 µM (inactive) | > 10 µM (inactive) | > 10 µM (inactive) | > 10 µM (inactive) | > 10 µM (inactive) | > 10 µM (inactive) | > 10 µM (inactive) | > 10 µM (inactive) | > 10 µM (inactive) | > 10 µM (inactive) | > 10 µM (inactive) | > 10 µM (inactive) | > 10 µM (inactive) | > 10 µM (inactive) | > 10 µM (inactive) | > 10 µM (inactive) | > 10 µM (inactive) | – | > 10 µM (inactive)
8 | CCOC(=O)c1ccc(OCc2nc3cc(C(F)(F)F)ccc3nc2-c2ccccc2)cc1 | > 100 µM (inactive) | > 100 µM (inactive) | > 100 µM (inactive) | > 100 µM (inactive) | > 100 µM (inactive) | > 100 µM (inactive) | – | > 100 µM (inactive) | > 100 µM (inactive) | > 100 µM (inactive) | > 100 µM (inactive) | > 100 µM (inactive) | > 100 µM (inactive) | – | > 100 µM (inactive) | > 100 µM (inactive) | > 100 µM (inactive) | > 100 µM (inactive) | > 100 µM (inactive) | > 100 µM (inactive)
9 | O=C(NCCCl)N(O)C(=O)Nc1ccccc1 | > 100 µM (inactive) | > 100 µM (inactive) | > 100 µM (inactive) | > 100 µM (inactive) | > 100 µM (inactive) | > 100 µM (inactive) | > 100 µM (inactive) | > 100 µM (inactive) | > 100 µM (inactive) | 74.6 µM (inactive) | > 100 µM (inactive) | > 100 µM (inactive) | – | > 100 µM (inactive) | > 100 µM (inactive) | > 100 µM (inactive) | > 100 µM (inactive) | > 100 µM (inactive) | > 100 µM (inactive) | > 100 µM (inactive)
10 | COc1cccc2c1C(=O)c1c(O)c3c(c(O)c1C2=O)C[C@@](O)(C(C)=O)C[C@@H]3OC1CC(N(Cc2ccccc2)Cc2ccccc2)C(O)C(C)O1 (stereo not given in full) | 4.55 µM (inactive) | 2.43 µM (inactive) | 29.4 µM (inactive) | 18.8 µM (inactive) | 2.27 µM (inactive) | 12.4 µM (inactive) | 13.3 µM (inactive) | 13.1 µM (inactive) | 10.4 µM (inactive) | 10.3 µM (inactive) | 4.62 µM (inactive) | 13.6 µM (inactive) | 32.8 µM (inactive) | 34 µM (inactive) | 21.7 µM (inactive) | 30.1 µM (inactive) | 4.69 µM (inactive) | 13.4 µM (inactive) | 16.6 µM (inactive) | –
11 | O=[N+]([O-])c1ccc(SN=S=NSc2cccc(SN=S=NSc3ccc([N+](=O)[O-])cc3)c2)cc1 | 46.5 µM (inactive) | 6 µM (inactive) | > 100 µM (inactive) | 48.8 µM (inactive) | 37 µM (inactive) | 24.6 µM (inactive) | 28.1 µM (inactive) | – | 15.8 µM (inactive) | 28 µM (inactive) | 27.7 µM (inactive) | 44.3 µM (inactive) | 35.7 µM (inactive) | > 100 µM (inactive) | 38.5 µM (inactive) | – | 20.4 µM (inactive) | 16.4 µM (inactive) | 37.8 µM (inactive) | 10.2 µM (inactive)
12 | CC(C)[C@H](NC(=O)[C@@H](O)[C@H](N)Cc1ccccc1)C(=O)N[C@@H](Cc1ccccc1)C(=O)O | > 100 µM (inactive) | > 100 µM (inactive) | > 100 µM (inactive) | > 100 µM (inactive) | > 100 µM (inactive) | > 100 µM (inactive) | > 100 µM (inactive) | > 100 µM (inactive) | > 100 µM (inactive) | > 100 µM (inactive) | > 100 µM (inactive) | > 100 µM (inactive) | > 100 µM (inactive) | > 100 µM (inactive) | > 100 µM (inactive) | > 100 µM (inactive) | > 100 µM (inactive) | > 100 µM (inactive) | > 100 µM (inactive) | > 100 µM (inactive)
13 | C[C@H]1CC[C@@H]2[C@@H](C)[C@H]3[C@H](C[C@H]4[C@@H]5CC=C6C[C@@H](O)CC[C@]6(C)[C@H]5C[C@H](O)[C@]34C)N2C1 | > 100 µM (inactive) | – | > 100 µM (inactive) | > 100 µM (inactive) | > 100 µM (inactive) | > 100 µM (inactive) | > 100 µM (inactive) | > 100 µM (inactive) | > 100 µM (inactive) | > 100 µM (inactive) | > 100 µM (inactive) | > 100 µM (inactive) | > 100 µM (inactive) | > 100 µM (inactive) | > 100 µM (inactive) | > 100 µM (inactive) | > 100 µM (inactive) | > 100 µM (inactive) | > 100 µM (inactive) | > 100 µM (inactive)
14 | C[C@H](CC[C@@H](O)C(C)(C)O)[C@H]1CC[C@@]2(C)[C@@H]3CC=C4[C@@H](CC[C@H](O)C4(C)C)[C@]3(C)C(=O)C[C@]12C [BRYODULCOSIGENIN] | 27.7 µM (inactive) | 16.5 µM (inactive) | – | > 50 µM (inactive) | 29 µM (inactive) | 3.05 µM (inactive) | > 50 µM (inactive) | 20.8 µM (inactive) | 31.7 µM (inactive) | 14.7 µM (inactive) | 13.3 µM (inactive) | > 50 µM (inactive) | 24.2 µM (inactive) | 42.5 µM (inactive) | > 50 µM (inactive) | – | 22.8 µM (inactive) | 38.5 µM (inactive) | – | 19.5 µM (inactive)
